Assay results as given in US11447487B2, “Spiroheptanyl hydantoins as rock inhibitors” (BRISTOL-MYERS SQUIBB COMPANY, priority 2017, dated 2022).

Each compound was assayed against ROCK2 (Homo sapiens (Human), UniProt O75116) (assay: ROCK assay (Caliper LABCHIP peptide phosphorylation)). Settings: 5 μM ATP, 1.5 μM peptide substrate.
Sequence of ROCK2 (O75116 whole entry, species assumed): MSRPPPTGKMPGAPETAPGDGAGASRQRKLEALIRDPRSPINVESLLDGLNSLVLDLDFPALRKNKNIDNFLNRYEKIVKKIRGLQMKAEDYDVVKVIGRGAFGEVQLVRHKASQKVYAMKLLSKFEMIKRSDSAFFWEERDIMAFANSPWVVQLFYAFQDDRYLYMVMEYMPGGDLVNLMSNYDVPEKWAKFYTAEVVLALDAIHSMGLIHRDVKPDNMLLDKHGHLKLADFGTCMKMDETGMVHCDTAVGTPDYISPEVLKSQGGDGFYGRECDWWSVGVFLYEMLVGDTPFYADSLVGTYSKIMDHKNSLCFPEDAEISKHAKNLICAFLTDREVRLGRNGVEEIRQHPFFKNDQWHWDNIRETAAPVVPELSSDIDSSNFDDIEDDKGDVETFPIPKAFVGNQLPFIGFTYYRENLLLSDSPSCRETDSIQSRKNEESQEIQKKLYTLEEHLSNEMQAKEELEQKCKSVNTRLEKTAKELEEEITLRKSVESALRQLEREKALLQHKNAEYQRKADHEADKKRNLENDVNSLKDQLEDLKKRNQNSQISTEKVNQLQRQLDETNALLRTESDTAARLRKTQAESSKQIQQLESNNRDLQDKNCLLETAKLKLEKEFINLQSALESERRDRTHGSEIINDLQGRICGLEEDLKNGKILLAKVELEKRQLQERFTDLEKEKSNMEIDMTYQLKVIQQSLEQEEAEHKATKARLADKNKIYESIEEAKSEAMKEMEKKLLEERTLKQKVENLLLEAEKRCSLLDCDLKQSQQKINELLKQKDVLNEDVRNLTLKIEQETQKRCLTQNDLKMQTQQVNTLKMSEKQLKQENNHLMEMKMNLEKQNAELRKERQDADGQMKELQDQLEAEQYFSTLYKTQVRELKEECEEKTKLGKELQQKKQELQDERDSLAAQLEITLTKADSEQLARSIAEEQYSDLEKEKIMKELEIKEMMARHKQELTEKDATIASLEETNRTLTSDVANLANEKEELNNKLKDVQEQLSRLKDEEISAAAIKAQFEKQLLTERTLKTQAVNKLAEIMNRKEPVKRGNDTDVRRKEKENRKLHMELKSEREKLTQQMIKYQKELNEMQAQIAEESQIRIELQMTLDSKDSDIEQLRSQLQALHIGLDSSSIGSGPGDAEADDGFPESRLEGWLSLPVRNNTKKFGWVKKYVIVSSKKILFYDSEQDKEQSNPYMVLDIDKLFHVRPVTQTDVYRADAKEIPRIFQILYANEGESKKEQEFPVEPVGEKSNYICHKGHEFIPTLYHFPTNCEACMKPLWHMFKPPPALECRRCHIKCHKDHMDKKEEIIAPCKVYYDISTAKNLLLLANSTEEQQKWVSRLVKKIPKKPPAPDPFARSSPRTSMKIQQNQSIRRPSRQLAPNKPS
Type: biochemical
Procedure: The effectiveness of compounds of the present invention as ROCK inhibitors can be determined in a 30 μL assay containing 20 mM HEPES, pH 7.5, 20 mM MgCl2, 0.015% Brij-35, 4 mM DTT, 5 μM ATP and 1.5 μM peptide substrate (FITC-AHA-AKRRRLSSLRA-OH) (SEQ ID No. 1). Compounds were dissolved in DMSO so that the final concentration of DMSO was <2%, and the reaction was initiated with Rho kinase variants. After incubation, the reaction was terminated by the addition of EDTA and the phosphorylated and non-phosphorylated peptides separated using a LABCHIP® 3000 Reader (Caliper Life Sciences). […] Compounds were tested in dose-response format, and the inhibition of kinase activity was calculated at each concentration of compound. The inhibition data were fit using a curve-fitting program to determine the IC50; i.e., the concentration of compound required to inhibit 50% of kinase activity. Representative Examples were tested in the ROCK assay described above and found having ROCK inhibitory activity. A range of ROCK inhibitory activity (IC50 values) of ≤50 μM (50000 nM) was observed. Table A below lists the ROCK IC50 values measured for the following examples.
`CC(C)CC1NC(=O)N([C@H]2C[C@@]3(C[C@H](Oc4ncccc4C(N)=O)C3)C2)C1=O` (stereo partly drawn) [Example 44, 2-{[(αR)-6-[4-(2-methylpropyl)-2,5-dioxoimidazolidin-1-yl]spiro[3.3]-heptan-2-yl]oxy}-pyridine-3-carbox-amide] was tested, and the IC50 was 29 nM. `NC(=O)c1cccnc1O[C@H]1C[C@]2(C1)C[C@H](N1C(=O)NC(CC3CCCC3)C1=O)C2` (stereo partly drawn) [Example 45, 2-{[(αR)-6-[4-(cyclopentyl-methyl)-2,5-dioxo-imidazolidin-1-yl]spiro[3.3]-heptan-2-yl]oxy}-pyridine-3-carbox-amide] showed an IC50 of 30 nM. Work on `NC(=O)c1cccnc1O[C@H]1C[C@]2(C1)C[C@H](N1C(=O)NC(CC3CC(F)(F)C3)C1=O)C2` (stereo partly drawn) [Example 46, 2-{[(αR)-6-{4-[(3,3-difluorocyclo-butyl)methyl]-2,5-dioxoimidazolidin-1-yl}spiro[3.3]-heptan-2-yl]oxy}-pyridine-3-carbox-amide] yielded an IC50 of 48 nM. With `NC(=O)c1cccnc1O[C@H]1C[C@]2(C1)C[C@H](N1C(=O)NC(CCC(F)(F)F)C1=O)C2` (stereo partly drawn) [Example 49, 2-{[(αR)-6-[2,5-dioxo-4-(3,3,3-trifluoropropyl)-imidazolidin-1-yl]-spiro[3.3]heptan-2-yl]oxy}pyridine-3-carboxamide] the IC50 was 99 nM. `CCC(CC)C1NC(=O)N([C@H]2C[C@@]3(C[C@H](Oc4ncccc4C(N)=O)C3)C2)C1=O` (stereo partly drawn) [Example 51, 2-{[(αR)-6-[2,5-dioxo-4-(pentan-3-yl)imidazolidin-1-yl]spiro[3.3]heptan-2-yl]oxy}pyridine-3-carboxamide] gave an IC50 of 155 nM. `CC(C)CCC1NC(=O)N([C@H]2C[C@@]3(C[C@H](Oc4ncccc4C(N)=O)C3)C2)C1=O` (stereo partly drawn) [Example 54, 2-{[(αR)-6-[4-(3-methylbutyl)-2,5-dioxoimidazolidin-1-yl]spiro[3.3]-heptan-2-yl]oxy}-pyridine-3-carbox-amide] gave an IC50 of 186 nM. `CC(C)(O)CC1NC(=O)N([C@H]2C[C@@]3(C[C@H](Oc4ncccc4C(N)=O)C3)C2)C1=O` (stereo partly drawn) [Example 58, 2-{[(αR)-6-[4-(2-hydroxy-2-methyl-propyl)-2,5-dioxo-imidazolidin-1-yl]-spiro[3.3]heptan-2-yl]oxy}pyridine-3-carboxamide] gave an IC50 of 289 nM. `CC(C)(O)CCC1NC(=O)N([C@H]2C[C@@]3(C[C@H](Oc4ncccc4C(N)=O)C3)C2)C1=O` (stereo partly drawn) [Example 62, 2-{[(αR)-6-[4-(3-hydroxy-3-methyl-butyl)-2,5-dioxo-imidazolidin-1-yl]-spiro[3.3]heptan-2-yl]oxy}pyridine-3-carboxamide] was tested, and the IC50 was 421 nM. Compound `NC(=O)c1cccnc1O[C@H]1C[C@]2(C1)C[C@H](N1C(=O)C(=O)N(CC3CCC3)C1=O)C2` (stereo partly drawn) [Example 63, 2-{[(αR)-6-[3-(cyclobutyl-methyl)-2,4,5-tri-oxoimidazolidin-1-yl]spiro[3.3]-heptan-2-yl]oxy}-pyridine-3-carbox-amide] has an IC50 of 617 nM. `CC(C)CCN1C(=O)C(=O)N([C@H]2C[C@@]3(C[C@H](Oc4ncccc4C(N)=O)C3)C2)C1=O` (stereo partly drawn) [Example 65, 2-{[(αR)-6-[3-(3-methylbutyl)-2,4,5-trioxo-imidazolidin-1-yl]spiro[3.3]-heptan-2-yl]oxy}-pyridine-3-carbox-amide] showed an IC50 of 968 nM. For `NC(=O)c1cccnc1O[C@H]1C[C@]2(C1)C[C@H](N1C(=O)NC(CCCS(N)(=O)=O)C1=O)C2` (stereo partly drawn) [Example 66, 2-{[(αR)-6-[2,5-dioxo-4-(3-sulfam-oylpropyl)imidazol-idin-1-yl]spiro-[3.3]heptan-2-yl]-oxy}pyridine-3-carboxamide], the IC50 was 1550 nM. For `CC(C)CN1C(=O)C(=O)N([C@H]2C[C@@]3(C[C@H](Oc4ncccc4C(N)=O)C3)C2)C1=O` (stereo partly drawn) [Example 67, 2-{[(αR)-6-[3-(2-methylpropyl)-2,4,5-trioxo-imidazolidin-1-yl]-spiro[3.3]heptan-2-yl]oxy}pyridine-3-carboxamide], the IC50 was 1780 nM. For `NC(=O)c1cccnc1O[C@H]1C[C@]2(C1)C[C@H](N1C(=O)NC(CC3CC4CCC3C4)C1=O)C2` (stereo partly drawn) [Example 69, 2-{[(αR)-6-[4-({bicyclo[2.2.1]-heptan-2-yl]}-methyl)-2,5-dioxo-imidazolidin-1-yl]-spiro[3.3]heptan-2-yljoxy}pyridine-3-carboxamide], the IC50 was 16 nM. Compound `NC(=O)c1cccnc1O[C@H]1C[C@]2(C1)C[C@H](N1C(=O)NC(CC3CC4CCC3CC4)C1=O)C2` (stereo partly drawn) [Example 70, 2-{[(αR)-6-[4-({bicyclo[2.2.2]-octan-2-yl}-methyl)-2,5-dioxo-imidazolidin-1-yl]spiro[3.3]-heptan-2-yl]oxy}-pyridine-3-carbox-amide] has an IC50 of 20 nM. Compound `CC(CCC1NC(=O)N([C@H]2C[C@@]3(C[C@H](Oc4ncccc4C(N)=O)C3)C2)C1=O)C(F)(F)F` (stereo partly drawn) [Example 71, 2-{[(αR)-6-[2,5-dioxo-4-(4,4,4-trifluoro-3-methyl-butyl)imidazolidin-1-yl]spiro[3.3]-heptan-2-yl]oxy}-pyridine-3-carbox-amide] has an IC50 of 36 nM. In the case of `Cc1c(CC2NC(=O)N([C@H]3C[C@@]4(C[C@H](Oc5ncccc5C(N)=O)C4)C3)C2=O)cnn1C` (stereo partly drawn) [Example 72, 2-{[(αR)-6-{4-[(1,5-dimethyl-1H-pyrazol-4-yl)-methyl]-2,5-dioxo-imidazolidin-1-yl}-spiro[3.3]heptan-2-yl]oxy}pyridine-3-carboxamide], the IC50 is reported as 885 nM. `NC(=O)c1cccnc1O[C@H]1C[C@]2(C1)C[C@H](N1C(=O)NC(Cc3ccncc3)C1=O)C2` (stereo partly drawn) [Example 73, 2-{[(αR)-6-{2,5-dioxo-4-[(pyridin-4-yl)methyl]-imidazolidin-1-yl}-spiro[3.3]heptan-2-yl]oxy}pyridine-3-carboxamide] was tested, and the IC50 was 2280 nM. `[H][C@]1(Oc2ncccc2C(N)=O)C[C@@]2(C[C@H](N3C(=O)C[C@H](CCc4ccccc4)NC3=O)C2)C1` (stereo partly drawn) [Example 74] showed an IC50 of 75 nM. `CC[C@H](C)[C@H]1CC(=O)N([C@H]2C[C@@]3(C[C@H](Oc4ncccc4C(N)=O)C3)C2)C(=O)N1` (stereo partly drawn) [Example 75, 2-{[(αR)-6-[(4R)-4-[(2S)-butan-2-yl]-2,6-dioxo-1,3-diazinan-1-yl]-spiro[3.3]heptan-2-yl]oxy}pyridine-3-carboxamide] was tested, and the IC50 was 138 nM. With `NC(=O)c1cccnc1O[C@H]1C[C@]2(C1)C[C@H](N1C(=O)C[C@H](c3cccc(Br)c3)NC1=O)C2` (stereo partly drawn) [Example 77, 2-{[(αR)-6-[(4R)-4-(3-bromophenyl)-2,6-dioxo-1,3-diazinan-1-yl]-spiro[3.3]heptan-2-yl]oxy}pyridine-3-carboxamide] the IC50 was 614 nM. `C=CC[C@@H]1CC(=O)N([C@H]2C[C@@]3(C[C@H](Oc4ncccc4C(N)=O)C3)C2)C(=O)N1` (stereo partly drawn) [Example 78, 2-{[(αR)-6-[(4R)-2,6-dioxo-4-(prop-2-en-1-yl)-1,3-diazinan-1-yl]-spiro[3.3]heptan-2-yl]oxy}pyridine-3-carboxamide] showed an IC50 of 963 nM. In the case of `[H][C@]1(Oc2ncccc2C(N)=O)C[C@]2(C[C@@H](N3C(=O)NCC(CC(C)C)C3=O)C2)C1` (stereo partly drawn) [Example 79], the IC50 is reported as 131 nM. In the case of `[H][C@]1(Oc2ncccc2C(N)=O)C[C@]2(C[C@@H](N3C(=O)CN(c4cccc(Cl)c4)C3=O)C2)C1` (stereo partly drawn) [Example 80, 2-(((aR)-6-(3-(3-chlorophenyl)-2,5-dioxoimidazolidin-1-yl)spiro[3.3]heptan-2-yl)oxy)nicotinamide], the IC50 is reported as 2 nM. For `NC(=O)c1cccnc1OC1CC2(C1)CC(N1C(=O)CN(c3ccccc3OC(F)F)C1=O)C2` (stereo not drawn) [Example 81, 2-(((αR)-6-(3-(2-(difluoromethoxy)phenyl)-2,5-dioxoimidazolidin-1-yl)spiro[3.3]heptan-2-yl)oxy)nicotinamide], the IC50 was 3 nM.
